Results as given in publication PMC5078040 (Oncotarget, 2016).

Assays:
[1] = target: T1, CSF1R-autoinhibited (Homo sapiens, UniProt P07333); assay: KinomeScan; type: binding; details: 1uM
T1 construct: purchased DiscoveRx KINOMEscan

[2] = target: T2, TNK2 (Homo sapiens, UniProt Q07912); assay: KinomeScan; type: binding; details: 1uM
T2 construct: purchased DiscoveRx KINOMEscan

[3] = target: T3, PFCDPK1(P.falciparum) (Plasmodium falciparum, UniProt P62344); assay: KinomeScan; type: binding; details: 1uM
T3 construct: purchased DiscoveRx KINOMEscan

[4] = target: T4, IRAK3 (Homo sapiens, UniProt Q9Y616); assay: KinomeScan; type: binding; details: 1uM
T4 construct: purchased DiscoveRx KINOMEscan

[5] = system: PARP cleavage; assay: Apoptosis (western-blot); type: cell-based, human; details: within 12 hours
Excerpt: Then, apoptosis of MOLM13, HT, MEC-1 cells were detected by western-blot using PARP, GAPDH antibody (CST).

[6] = target: T5, BRSK2 (Homo sapiens, UniProt Q8IWQ3); assay: KinomeScan; type: binding; details: 1uM
T5 construct: purchased DiscoveRx KINOMEscan

[7] = target: T6, DCAMKL3 (Homo sapiens, UniProt Q9C098); assay: KinomeScan; type: binding; details: 1uM
T6 construct: purchased DiscoveRx KINOMEscan
T6 sequence (Q9C098 whole entry): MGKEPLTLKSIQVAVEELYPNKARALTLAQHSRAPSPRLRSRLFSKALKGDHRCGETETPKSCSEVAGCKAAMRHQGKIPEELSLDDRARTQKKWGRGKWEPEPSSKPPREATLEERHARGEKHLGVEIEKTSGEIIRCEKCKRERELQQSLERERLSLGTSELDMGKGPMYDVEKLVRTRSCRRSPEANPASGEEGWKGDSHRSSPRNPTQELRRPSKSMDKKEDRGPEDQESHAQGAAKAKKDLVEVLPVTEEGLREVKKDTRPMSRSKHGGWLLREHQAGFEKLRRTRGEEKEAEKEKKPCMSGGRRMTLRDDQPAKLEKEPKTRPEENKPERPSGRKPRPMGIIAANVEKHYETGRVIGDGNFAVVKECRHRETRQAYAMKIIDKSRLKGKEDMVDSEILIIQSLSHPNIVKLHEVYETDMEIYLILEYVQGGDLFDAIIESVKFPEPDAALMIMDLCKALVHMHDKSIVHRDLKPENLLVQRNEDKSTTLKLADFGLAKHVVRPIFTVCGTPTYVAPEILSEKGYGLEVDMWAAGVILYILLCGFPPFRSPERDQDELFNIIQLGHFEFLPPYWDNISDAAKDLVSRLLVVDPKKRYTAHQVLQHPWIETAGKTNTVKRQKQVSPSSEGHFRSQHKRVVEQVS

[8] = target: T7, EGFR(L747-E749del, A750P) (Homo sapiens, UniProt P00533, A750P/DEL747-749); assay: KinomeScan; type: binding; details: 1uM
T7 construct: purchased DiscoveRx KINOMEscan

[9] = target: T8, YANK2 (Homo sapiens, UniProt Q9NY57); assay: KinomeScan; type: binding; details: 1uM
T8 construct: purchased DiscoveRx KINOMEscan

[10] = target: T9, ERK3 (Homo sapiens, UniProt Q16659); assay: KinomeScan; type: binding; details: 1uM
T9 construct: purchased DiscoveRx KINOMEscan
T9 sequence (Q16659 whole entry): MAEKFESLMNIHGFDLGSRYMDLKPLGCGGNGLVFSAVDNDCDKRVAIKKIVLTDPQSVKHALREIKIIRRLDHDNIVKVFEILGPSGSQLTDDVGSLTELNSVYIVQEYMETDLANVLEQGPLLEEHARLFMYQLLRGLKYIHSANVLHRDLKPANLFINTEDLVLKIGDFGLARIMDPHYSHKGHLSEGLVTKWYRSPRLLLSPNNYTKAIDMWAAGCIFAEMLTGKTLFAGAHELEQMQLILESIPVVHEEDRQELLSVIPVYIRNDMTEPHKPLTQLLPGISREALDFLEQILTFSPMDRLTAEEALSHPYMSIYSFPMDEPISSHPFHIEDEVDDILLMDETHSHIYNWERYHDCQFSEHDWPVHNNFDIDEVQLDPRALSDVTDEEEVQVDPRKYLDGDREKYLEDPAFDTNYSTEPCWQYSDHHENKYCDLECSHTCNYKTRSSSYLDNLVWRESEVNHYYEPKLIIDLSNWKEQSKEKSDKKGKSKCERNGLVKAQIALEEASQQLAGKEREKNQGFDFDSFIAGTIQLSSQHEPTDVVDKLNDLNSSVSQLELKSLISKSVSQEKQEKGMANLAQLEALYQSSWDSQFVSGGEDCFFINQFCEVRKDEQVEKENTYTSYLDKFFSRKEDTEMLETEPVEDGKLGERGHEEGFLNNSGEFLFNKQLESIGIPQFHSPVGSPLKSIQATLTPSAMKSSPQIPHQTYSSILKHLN

[11] = target: T10, KIT(D816H) (Homo sapiens, UniProt P10721, D816H); assay: KinomeScan; type: binding; details: 1uM
T10 construct: purchased DiscoveRx KINOMEscan

[12] = target: T11, EPHB6 (Homo sapiens, UniProt O15197); assay: KinomeScan; type: binding; details: 1uM
T11 construct: purchased DiscoveRx KINOMEscan

[13] = target: T12, CAMK1 (Homo sapiens, UniProt Q14012); assay: KinomeScan; type: binding; details: 1uM
T12 construct: purchased DiscoveRx KINOMEscan
T12 sequence (Q14012 whole entry): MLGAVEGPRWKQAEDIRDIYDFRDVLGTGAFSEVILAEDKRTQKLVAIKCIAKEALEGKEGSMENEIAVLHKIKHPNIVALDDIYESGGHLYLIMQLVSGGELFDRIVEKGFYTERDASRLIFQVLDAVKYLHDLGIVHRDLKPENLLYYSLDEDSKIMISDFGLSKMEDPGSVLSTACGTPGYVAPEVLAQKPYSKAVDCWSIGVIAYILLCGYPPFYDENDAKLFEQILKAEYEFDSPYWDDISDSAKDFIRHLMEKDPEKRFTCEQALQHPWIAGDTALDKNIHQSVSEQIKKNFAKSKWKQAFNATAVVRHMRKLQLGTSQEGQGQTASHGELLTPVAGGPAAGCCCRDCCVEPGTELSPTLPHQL

[14] = target: T13, EPHA4 (Homo sapiens, UniProt P54764); assay: KinomeScan; type: binding; details: 1uM
T13 construct: purchased DiscoveRx KINOMEscan

[15] = target: T14, CDKL2 (Homo sapiens, UniProt Q92772); assay: KinomeScan; type: binding; details: 1uM
T14 construct: purchased DiscoveRx KINOMEscan

[16] = target: T15, CDK11 (Homo sapiens, UniProt Q9BWU1); assay: KinomeScan; type: binding; details: 1uM
T15 construct: purchased DiscoveRx KINOMEscan

[17] = target: T16, PLK2 (Homo sapiens, UniProt Q9NYY3); assay: KinomeScan; type: binding; details: 1uM
T16 construct: purchased DiscoveRx KINOMEscan

[18] = system: CLL patient primary cell; assay: Anti-proliferative efficacy against patient primary cells; type: cell-based; details: Homo sapiens
Protocol: Peripheral blood mononuclear cells (PBMCs) from individuals with CLL were isolated by density centrifugation through Ficoll and frozen for each subject. Those subjects with low white counts whose CLL cell purity was expected to be < 85% underwent B cell isolation using RosetteSep. The protocol was approved by the Dana-Farber Harvard Cancer Center Institutional Review Board and all subjects signed written informed consent prior to participation.
Cells were grown in 96-well culture plates (3000-4000/well). […] Cell proliferation was determined after treatment with compounds for 72 hours. Cell viability was measured using the CellTiter–Glo Assay Kit (Promega, USA), according to the manufacturer's instructions, and luminescence was measured in a multi-label reader (Envision, PerkinElmer, USA). Data were normalized to control groups (DMSO) and represented by the mean of three independent measurements with standard error <20%. GI50 values were calculated using Prism 5.0 (GraphPad Software, San Diego, CA).

[19] = target: T17, CSNK1G2 (Homo sapiens, UniProt P78368); assay: KinomeScan; type: binding; details: 1uM
T17 construct: purchased DiscoveRx KINOMEscan
T17 sequence (P78368 whole entry): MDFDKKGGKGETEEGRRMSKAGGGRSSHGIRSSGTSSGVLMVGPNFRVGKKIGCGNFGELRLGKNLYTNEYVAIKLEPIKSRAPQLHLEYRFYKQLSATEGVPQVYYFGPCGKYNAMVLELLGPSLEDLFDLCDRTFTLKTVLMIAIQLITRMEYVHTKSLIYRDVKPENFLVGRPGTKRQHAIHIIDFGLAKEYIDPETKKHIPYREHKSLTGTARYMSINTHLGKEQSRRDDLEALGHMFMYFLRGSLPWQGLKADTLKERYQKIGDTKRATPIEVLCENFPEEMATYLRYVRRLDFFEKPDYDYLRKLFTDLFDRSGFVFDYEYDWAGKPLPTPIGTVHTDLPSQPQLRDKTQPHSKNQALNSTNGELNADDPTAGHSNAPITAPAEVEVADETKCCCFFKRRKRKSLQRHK

[20] = target: T18, PRKD3 (Homo sapiens, UniProt O94806); assay: KinomeScan; type: binding; details: 1uM
T18 construct: purchased DiscoveRx KINOMEscan

[21] = target: T19, CAMK1D (Homo sapiens, UniProt Q8IU85); assay: KinomeScan; type: binding; details: 1uM
T19 construct: purchased DiscoveRx KINOMEscan

[22] = target: T20, PCTK3 (Homo sapiens, UniProt Q07002); assay: KinomeScan; type: binding; details: 1uM
T20 construct: purchased DiscoveRx KINOMEscan
T20 sequence (Q07002 whole entry): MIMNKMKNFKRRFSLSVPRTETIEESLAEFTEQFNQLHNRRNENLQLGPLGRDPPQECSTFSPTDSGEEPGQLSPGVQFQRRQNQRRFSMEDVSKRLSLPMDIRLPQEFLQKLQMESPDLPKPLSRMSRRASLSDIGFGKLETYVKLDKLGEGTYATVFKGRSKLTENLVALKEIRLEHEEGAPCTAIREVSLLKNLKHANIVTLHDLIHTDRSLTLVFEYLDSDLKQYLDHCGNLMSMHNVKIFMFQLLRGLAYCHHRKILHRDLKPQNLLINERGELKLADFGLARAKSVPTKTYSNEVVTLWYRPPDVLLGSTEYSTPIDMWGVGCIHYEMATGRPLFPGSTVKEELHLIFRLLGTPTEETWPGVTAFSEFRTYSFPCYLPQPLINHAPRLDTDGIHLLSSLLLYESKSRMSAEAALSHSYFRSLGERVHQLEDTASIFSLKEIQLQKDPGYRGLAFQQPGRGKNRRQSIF

[23] = target: T21, SGK3 (Homo sapiens, UniProt Q96BR1); assay: KinomeScan; type: binding; details: 1uM
T21 construct: purchased DiscoveRx KINOMEscan
T21 sequence (Q96BR1 whole entry): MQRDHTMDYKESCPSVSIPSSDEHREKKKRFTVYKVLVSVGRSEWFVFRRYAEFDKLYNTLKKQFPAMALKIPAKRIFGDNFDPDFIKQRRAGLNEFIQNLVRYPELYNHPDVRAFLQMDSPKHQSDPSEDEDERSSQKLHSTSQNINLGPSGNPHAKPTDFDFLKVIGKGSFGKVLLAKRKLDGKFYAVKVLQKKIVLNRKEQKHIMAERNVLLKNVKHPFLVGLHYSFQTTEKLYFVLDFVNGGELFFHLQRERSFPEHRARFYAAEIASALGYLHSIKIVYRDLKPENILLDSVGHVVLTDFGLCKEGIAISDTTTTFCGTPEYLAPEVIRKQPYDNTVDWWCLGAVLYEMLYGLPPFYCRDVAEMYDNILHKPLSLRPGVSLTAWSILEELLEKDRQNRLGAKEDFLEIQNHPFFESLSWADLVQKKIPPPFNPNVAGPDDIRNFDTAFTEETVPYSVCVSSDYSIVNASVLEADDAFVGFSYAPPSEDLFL

[24] = target: T22, JAK1(JH1domain-catalytic) (Homo sapiens, UniProt P23458); assay: KinomeScan; type: binding; details: 1uM
T22 construct: JAK1(JH1domain-catalytic); purchased DiscoveRx KINOMEscan

[25] = target: T23, NEK10 (Homo sapiens, UniProt Q6ZWH5); assay: KinomeScan; type: binding; details: 1uM
T23 construct: purchased DiscoveRx KINOMEscan

[26] = target: T24, IKK-epsilon (Homo sapiens, UniProt Q14164); assay: KinomeScan; type: binding; details: 1uM
T24 construct: purchased DiscoveRx KINOMEscan
T24 sequence (Q14164 whole entry): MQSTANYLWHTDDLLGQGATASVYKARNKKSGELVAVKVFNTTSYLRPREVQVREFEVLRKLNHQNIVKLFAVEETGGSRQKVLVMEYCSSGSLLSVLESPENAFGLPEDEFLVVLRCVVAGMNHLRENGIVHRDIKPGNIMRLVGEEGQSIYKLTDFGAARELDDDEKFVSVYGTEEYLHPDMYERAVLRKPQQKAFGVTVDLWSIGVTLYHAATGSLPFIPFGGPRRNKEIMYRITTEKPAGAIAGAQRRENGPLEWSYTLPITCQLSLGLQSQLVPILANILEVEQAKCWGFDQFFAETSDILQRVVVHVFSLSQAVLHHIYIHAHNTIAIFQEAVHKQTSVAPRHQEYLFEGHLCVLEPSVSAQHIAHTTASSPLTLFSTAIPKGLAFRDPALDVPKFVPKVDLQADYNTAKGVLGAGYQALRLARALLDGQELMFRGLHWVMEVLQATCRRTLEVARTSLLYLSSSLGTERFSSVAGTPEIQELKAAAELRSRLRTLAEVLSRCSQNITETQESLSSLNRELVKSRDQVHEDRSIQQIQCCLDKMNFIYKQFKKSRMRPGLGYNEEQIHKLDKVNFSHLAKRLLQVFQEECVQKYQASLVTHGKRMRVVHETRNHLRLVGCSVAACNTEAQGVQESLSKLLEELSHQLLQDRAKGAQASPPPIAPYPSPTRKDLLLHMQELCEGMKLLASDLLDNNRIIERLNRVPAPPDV

[27] = target: T25, PLK1 (Homo sapiens, UniProt P53350); assay: KinomeScan; type: binding; details: 1uM
T25 construct: purchased DiscoveRx KINOMEscan

[28] = target: T26, TXK (Homo sapiens, UniProt P42681); assay: KinomeScan; type: binding; details: 1uM
T26 construct: purchased DiscoveRx KINOMEscan

[29] = target: T27, FLT3(K663Q) (Homo sapiens, UniProt P36888, K663Q); assay: KinomeScan; type: binding; details: 1uM
T27 construct: purchased DiscoveRx KINOMEscan

[30] = target: T28, AXL (Homo sapiens, UniProt P30530); assay: KinomeScan; type: binding; details: 1uM
T28 construct: purchased DiscoveRx KINOMEscan

[31] = target: T29, JNK2 (Homo sapiens, UniProt P45984); assay: KinomeScan; type: binding; details: 1uM
T29 construct: purchased DiscoveRx KINOMEscan

[32] = target: T30, RSK4(Kin.Dom.1-N-terminal) (Homo sapiens, UniProt Q9UK32); assay: KinomeScan; type: binding; details: 1uM
T30 construct: RSK4(Kin.Dom.1-N-terminal); purchased DiscoveRx KINOMEscan

[33] = target: T31, LCK (Homo sapiens, UniProt P06239); assay: KinomeScan; type: binding; details: 1uM
T31 construct: purchased DiscoveRx KINOMEscan
T31 sequence (P06239 whole entry): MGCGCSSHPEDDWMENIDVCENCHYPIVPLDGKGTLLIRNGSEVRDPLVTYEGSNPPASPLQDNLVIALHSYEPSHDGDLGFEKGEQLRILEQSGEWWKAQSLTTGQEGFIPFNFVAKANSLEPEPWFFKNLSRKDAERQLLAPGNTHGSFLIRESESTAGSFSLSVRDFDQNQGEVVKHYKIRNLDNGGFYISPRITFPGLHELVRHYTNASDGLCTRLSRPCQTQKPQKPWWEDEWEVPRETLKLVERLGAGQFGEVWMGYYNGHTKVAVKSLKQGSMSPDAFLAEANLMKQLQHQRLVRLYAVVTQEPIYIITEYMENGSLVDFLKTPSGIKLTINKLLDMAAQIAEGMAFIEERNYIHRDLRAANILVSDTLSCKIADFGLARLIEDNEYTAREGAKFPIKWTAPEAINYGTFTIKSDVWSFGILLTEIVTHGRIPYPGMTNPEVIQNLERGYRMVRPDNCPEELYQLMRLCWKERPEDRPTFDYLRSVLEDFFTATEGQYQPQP

[34] = target: T32, EPHA5 (Homo sapiens, UniProt P54756); assay: KinomeScan; type: binding; details: 1uM
T32 construct: purchased DiscoveRx KINOMEscan

[35] = target: T33, PLK3 (Homo sapiens, UniProt Q9H4B4); assay: KinomeScan; type: binding; details: 1uM
T33 construct: purchased DiscoveRx KINOMEscan
T33 sequence (Q9H4B4 whole entry): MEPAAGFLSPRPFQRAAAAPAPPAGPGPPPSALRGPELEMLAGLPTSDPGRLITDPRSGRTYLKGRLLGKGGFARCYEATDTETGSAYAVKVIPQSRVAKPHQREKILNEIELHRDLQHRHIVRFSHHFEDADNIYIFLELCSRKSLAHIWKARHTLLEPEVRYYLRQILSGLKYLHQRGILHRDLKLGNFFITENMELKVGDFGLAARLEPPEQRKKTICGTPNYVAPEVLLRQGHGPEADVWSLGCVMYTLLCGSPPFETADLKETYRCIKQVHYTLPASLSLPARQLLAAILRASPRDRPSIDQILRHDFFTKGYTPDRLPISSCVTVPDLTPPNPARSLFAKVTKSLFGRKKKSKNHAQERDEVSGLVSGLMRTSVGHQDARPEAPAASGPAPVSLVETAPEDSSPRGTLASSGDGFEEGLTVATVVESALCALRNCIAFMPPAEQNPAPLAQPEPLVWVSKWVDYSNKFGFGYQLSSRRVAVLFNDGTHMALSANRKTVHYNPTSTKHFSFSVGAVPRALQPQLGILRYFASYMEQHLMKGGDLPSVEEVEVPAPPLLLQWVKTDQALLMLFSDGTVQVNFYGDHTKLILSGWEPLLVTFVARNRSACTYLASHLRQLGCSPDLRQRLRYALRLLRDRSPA

SMILES: Cc1nc(NC(=O)[C@@H](N)C(C)C)sc1-c1cnc(Cl)c(NS(=O)(=O)c2ccccc2)c1 [PI3KD-IN-015]
- KinomeScan CSF1R-autoinhibited [1]: 100
- KinomeScan TNK2 [2]: 100
- KinomeScan PFCDPK1(P.falciparum) [3]: 100
- KinomeScan IRAK3 [4]: 100
- PARP cleavage (apoptosis) ([5]; MEC-1 cell (CLL)): only weakly
- PARP cleavage (apoptosis) ([5]; MOLM-13 cell (AML), HT cell (B-NHL)): apparent PARP cleavage
- KinomeScan BRSK2 [6]: 100
- KinomeScan DCAMKL3 [7]: 100
- KinomeScan EGFR(L747-E749del, A750P) [8]: 100
- KinomeScan YANK2 [9]: 99
- KinomeScan ERK3 [10]: 96
- KinomeScan KIT(D816H) [11]: 92
- KinomeScan EPHB6 [12]: 100
- KinomeScan CAMK1 [13]: 98
- KinomeScan EPHA4 [14]: 100
- KinomeScan CDKL2 [15]: 100
- KinomeScan CDK11 [16]: 100
- KinomeScan PLK2 [17]: 83
- GI50 ([18]; patient primary cell CLL16): 7.8 µM
- GI50 ([18]; patient primary cell CLL18): > 10 µM
- GI50 ([18]; patient primary cell CLL19): 1.5 µM
- KinomeScan CSNK1G2 [19]: 100
- KinomeScan PRKD3 [20]: 100
- KinomeScan CAMK1D [21]: 94
- KinomeScan PCTK3 [22]: 100
- KinomeScan SGK3 [23]: 91
- KinomeScan JAK1(JH1domain-catalytic) [24]: 92
- KinomeScan NEK10 [25]: 83
- KinomeScan IKK-epsilon [26]: 100
- KinomeScan PLK1 [27]: 90
- KinomeScan TXK [28]: 100
- KinomeScan FLT3(K663Q) [29]: 100
- KinomeScan AXL [30]: 97
- KinomeScan JNK2 [31]: 100
- KinomeScan RSK4(Kin.Dom.1-N-terminal) [32]: 100
- KinomeScan LCK [33]: 100
- KinomeScan EPHA5 [34]: 100
- KinomeScan PLK3 [35]: 76
